# Reference: ChEMBL document CHEMBL5257156, “Improving binding entropy by higher ligand symmetry? - A case study with human matriptase” (RSC Med Chem, 2023)
# Assays:
# [1] = molecular target: T1, Suppressor of tumorigenicity 14 protein (Homo sapiens) (UniProt Q9Y5Y6); assay: Binding affinity to recombinant hexahistidine tagged human MT-SP1 (596 to 855 residues) expressed in Escherichia coli BL21 gold (DE3) cells assessed as change in entropy by ITC analysis
# T1 sequence (whole entry): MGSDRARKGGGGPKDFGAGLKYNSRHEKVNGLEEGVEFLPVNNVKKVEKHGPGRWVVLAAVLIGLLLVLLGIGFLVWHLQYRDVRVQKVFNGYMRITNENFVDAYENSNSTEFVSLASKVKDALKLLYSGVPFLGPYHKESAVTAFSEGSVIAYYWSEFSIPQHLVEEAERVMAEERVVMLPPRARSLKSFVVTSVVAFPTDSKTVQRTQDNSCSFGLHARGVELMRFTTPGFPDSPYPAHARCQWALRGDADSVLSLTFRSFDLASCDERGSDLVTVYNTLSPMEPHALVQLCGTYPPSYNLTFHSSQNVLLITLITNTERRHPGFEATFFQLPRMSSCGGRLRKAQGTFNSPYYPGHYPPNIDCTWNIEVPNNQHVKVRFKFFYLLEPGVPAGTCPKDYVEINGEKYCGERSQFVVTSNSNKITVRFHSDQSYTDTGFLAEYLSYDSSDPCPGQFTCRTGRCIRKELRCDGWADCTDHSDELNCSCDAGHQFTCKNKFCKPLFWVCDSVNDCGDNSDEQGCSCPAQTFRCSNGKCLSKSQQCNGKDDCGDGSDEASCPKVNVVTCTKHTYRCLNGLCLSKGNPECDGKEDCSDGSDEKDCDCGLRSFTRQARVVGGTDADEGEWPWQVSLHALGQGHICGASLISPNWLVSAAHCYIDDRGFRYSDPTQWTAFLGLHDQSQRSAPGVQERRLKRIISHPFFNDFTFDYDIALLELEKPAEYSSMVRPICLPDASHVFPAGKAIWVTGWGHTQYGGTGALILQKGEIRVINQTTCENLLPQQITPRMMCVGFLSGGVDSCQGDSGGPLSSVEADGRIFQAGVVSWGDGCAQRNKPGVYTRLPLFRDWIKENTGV
# [2] = molecular target: T1, Suppressor of tumorigenicity 14 protein (Homo sapiens); assay: Binding affinity to recombinant hexahistidine tagged human MT-SP1 (596 to 855 residues) expressed in Escherichia coli BL21 gold (DE3) cells assessed as change in enthalpy by ITC analysis
# [3] = molecular target: T1, Suppressor of tumorigenicity 14 protein (Homo sapiens); assay: Binding affinity to recombinant hexahistidine tagged human MT-SP1 (596 to 855 residues) expressed in Escherichia coli BL21 gold (DE3) cells assessed as free energy change by ITC analysis
# [4] = molecular target: T2, Suppressor of tumorigenicity 14 protein (Homo sapiens, UniProt Q9Y5Y6); assay: Inhibition of human matriptase using Mes-D-Pro-Arg-AMC.2TFA as substrate incubated for 10 mins by fluorescence based assay
# T2 sequence (Q9Y5Y6 whole entry): T1 sequence (whole entry)
# [5] = molecular target: T2, Suppressor of tumorigenicity 14 protein; assay: Binding affinity to recombinant hexahistidine tagged human MT-SP1 (596 to 855 residues) expressed in Escherichia coli BL21 gold (DE3) cells […] by ITC analysis
# [6] = molecular target: T2, Suppressor of tumorigenicity 14 protein; assay: Inhibition of recombinant hexahistidine tagged human MT-SP1 (596 to 855 residues) expressed in Escherichia coli BL21 gold (DE3) cells using Boc-Leu-Arg-Arg-AMC as substrate measured every 30 secs for 10 mins by fluorescence based assay
-TdeltaS [1],deltaH [2],deltaG [3],Ki [4],Kd [5],Ki [6],Structure (SMILES)
-7.19 kcal/mol,-1.63 kcal/mol,-8.82 kcal/mol,0.393 µM,0.392 µM,–,N=C(N)c1ccc(CCNC(=O)C(C(=O)NCCc2ccc(C(=N)N)cc2)C(=O)NCc2ccc(C(=N)N)cc2)cc1 (stereo not given)
-8.15 kcal/mol,1.24 kcal/mol,-6.91 kcal/mol,–,10.2 µM,18.4 µM,NCc1ccc(Oc2cc(Oc3ccc(CN)cc3)cc(Oc3ccc(CN)cc3)c2)cc1
-4.64 kcal/mol,-3.35 kcal/mol,-7.98 kcal/mol,4.23 µM,1.45 µM,–,N=C(N)c1ccc(CCNC(=O)CC(=O)NCCc2ccc(C(=N)N)cc2)cc1
-9.7 kcal/mol,2.03 kcal/mol,-7.67 kcal/mol,–,2.52 µM,0.775 µM,N=C(N)c1ccc(Oc2cc(Oc3ccc(CN)cc3)cc(Oc3ccc(CN)cc3)c2)cc1
